# Assay results: patent US10548316B2, “Diarylazole compound and harmful organism control agent” (Nippon Soda Co., Ltd., priority 2015, dated 2020)
# Test system: not given
# Experiment: not given
# Settings: not given
row,melting point,Compound
1,79 to 80 °C,"CCSc1cc(C(F)(F)F)ccc1-n1nnc(-c2ccc(C(F)(F)F)cc2)c1C [Compound 4-5, 1-(2-(Ethylthio)-4-(trifluoromethyl)phenyl)-5-methyl-4-(4-(trifluoromethyl)phenyl)-1H-1,2,3-triazole]"
2,154 to 156 °C,"CCS(=O)(=O)c1cc(C(F)(F)F)ccc1-n1nnc(-c2ccc(C(F)(F)F)cc2)c1C [Compound 4-6, 1-(2-(Ethylsulfonyl)-4-(trifluoromethyl)phenyl)-5-methyl-4-(4-(trifluoromethyl)phenyl)-1H-1,2,3-triazole]"
3,110 to 111 °C,"CCSc1cc(C(F)(F)F)ccc1-n1cc(-c2ccc(OC(F)(F)F)cc2)nn1 [Compound 4-7, 1-(2-(Ethylthio)-4-(trifluoromethyl)phenyl)-4-(4-(trifluoromethoxy)phenyl)-1H-1,2,3-triazole]"
4,178 to 179 °C,"CCS(=O)(=O)c1cc(C(F)(F)F)ccc1-n1cc(-c2ccc(OC(F)(F)F)cc2)nn1 [Compound 4-8, 1-(2-(Ethylsulfonyl)-4-(trifluoromethyl)phenyl)-4-(4-(trifluoromethoxy)phenyl)-1H-1,2,3-triazole]"

# Test system: Pseudaletia separata
# Experiment: Efficacy test against Pseudaletia separata (artificial diet)
# Type: in vivo
# Settings: 1 μl emulsion (I) (5% active ingredient) mixed in 0.8 g artificial diet; second-instar larvae; 25° C.; fifth day
# Experimental: (§1) 5 parts of the compound of the present invention, 93.6 parts of dimethylformamide, and 1.4 parts of polyoxyethylene alkylaryl ether were mixed and dissolved to prepare an emulsion (I) of 5% of the active ingredient.
# (§2) The insect mortality rate and the control rate were calculated by the following formula. Insect mortality rate (%)=(number of dead insects/number of sample insects)×100 Prevention rate=[1−(Nt)/(Nc)]×100
# 0.8 g of commercially available artificial diet (Insecta US, manufactured by Nosan Corporation) and 1 μl of emulsion (1) were well mixed and 0.2 g of the resulting mixture was packed in a plastic test container (1.4 ml) per each treatment group to prepare test feeds.
# 2 second-instar larvae of Pseudaletia separata were inoculated into each treatment group and sealed with a plastic lid. The plastic test containers were placed in a thermostatic chamber with a temperature of 25° C., and the insect mortality rate and the food intake amount were investigated on the fifth day. The test was repeated twice.
# Further, a test under the same conditions except that the compound of the present invention was removed from emulsion (I) was conducted as a solvent control group.
row,Compound,food intake amount in ratio to the solvent control group
1,CCS(=O)(=O)c1cccnc1-n1ncc(-c2ccc(OC(F)(F)F)cc2)c1N [Compound 2-10],≤ 10%

# Same assay, conditions: in vivo
row,Compound,insect mortality rate
1,CCSc1cc(C(F)(F)F)ccc1-n1cc(-c2ccc(C(F)(F)F)cc2)cn1 [Compound 1-1],100%
2,CCS(=O)(=O)c1cc(C(F)(F)F)ccc1-n1cc(-c2ccc(C(F)(F)F)cc2)cn1 [Compound 1-2],100%
3,CCSc1cc(C(F)(F)F)ccc1-n1ncc(-c2ccc(C(F)(F)F)cc2)c1N [Compound 1-4],100%
4,CCS(=O)(=O)c1cc(C(F)(F)F)ccc1-n1ncc(-c2ccc(C(F)(F)F)cc2)c1N [Compound 1-5],100%
5,CC[S+]([O-])c1cc(C(F)(F)F)ccc1-n1ncc(-c2ccc(C(F)(F)F)cc2)c1C (stereo not shown) [Compound 1-9],100%
6,CCS(=O)(=O)c1cc(C(F)(F)F)ccc1-n1cc(-c2ccc(OC(F)(F)F)cc2)cn1 [Compound 1-14],100%
7,CCS(=O)(=O)c1cc(C(F)(F)F)ccc1-n1cc(-c2ccc(C(F)(F)F)nc2)cn1 [Compound 1-15],100%
8,CCS(=O)(=O)c1cc(C(F)(F)F)ccc1-n1cc(-c2ccc(C(F)(F)F)cc2F)cn1 [Compound 1-16],100%
9,CCS(=O)(=O)c1cc(C(F)(F)F)ccc1-n1ncc(-c2ccc(OC(F)(F)F)cc2)c1C [Compound 1-19],100%
10,CCS(=O)(=O)c1cc(C(F)(F)F)ccc1-n1ncc(-c2ccc(OC(F)(F)F)cc2)c1Br [Compound 1-20],100%
11,CCS(=O)(=O)c1cc(C(F)(F)F)ccc1-n1cc(-c2ccc(C(F)(F)C(F)(F)F)cc2)cn1 [Compound 1-22],100%
12,CCS(=O)(=O)c1cc(C(F)(F)F)ccc1-n1ncc(-c2ccc(OC(F)(F)F)cc2)c1F [Compound 1-23],100%
13,CCS(=O)(=O)c1cc(C(F)(F)F)ccc1-n1ncc(-c2ccc(C(F)(F)F)nc2)c1C [Compound 1-24],100%
14,CCS(=O)(=O)c1cc(C(F)(F)F)ccc1-n1ncc(-c2ccc(C(F)(F)F)nc2)c1N [Compound 1-25],100%
15,CCS(=O)(=O)c1cc(C(F)(F)F)ccc1-n1ncc(-c2cc(C(F)(F)F)cc(C(F)(F)F)c2)c1C [Compound 1-26],100%
16,CCS(=O)(=O)c1cc(C(F)(F)F)ccc1-n1cc(-c2cc(C(F)(F)F)cc(C(F)(F)F)c2)cn1 [Compound 1-27],100%
17,CCS(=O)(=O)c1cc(C(F)(F)F)ccc1-n1ncc(-c2cc(C(F)(F)F)cc(C(F)(F)F)c2)c1N [Compound 1-28],100%
18,CCS(=O)(=O)c1cc(C(F)(F)F)ccc1-n1ncc(-c2cc(C(F)(F)F)cc(C(F)(F)F)c2)c1I [Compound 1-30],100%
19,CCS(=O)(=O)c1cc(C(F)(F)F)ccc1-n1ncc(-c2ccc(C(F)(F)C(F)(F)F)cc2)c1N [Compound 1-31],100%
20,CCS(=O)(=O)c1cc(C(F)(F)F)ccc1-n1ncc(-c2ccc(SC(F)(F)F)cc2)c1N [Compound 1-32],100%
21,CCS(=O)(=O)c1cc(C(F)(F)F)ccc1-n1ncc(-c2cccc(OC(F)(F)F)c2)c1N [Compound 1-34],100%

row,Compound,insect mortality rate
1,CCS(=O)(=O)c1cc(C(F)(F)F)ccc1-n1ncc(-c2ccc(C(F)(C(F)(F)F)C(F)(F)F)cc2)c1N [Compound 1-35],100%
2,CCS(=O)(=O)c1cc(C(F)(F)F)ccc1-n1ncc(-c2ccc(C(F)(F)F)c(Cl)c2)c1N [Compound 1-36],100%
3,CCS(=O)(=O)c1cc(C(F)(F)F)ccc1-n1ncc(-c2ccc(OC(F)(F)F)c(Cl)c2)c1N [Compound 1-38],100%
4,CCS(=O)(=O)c1cc(C(F)(F)F)ccc1-n1ncc(-c2ccc(C(F)(F)C(F)(F)F)nc2)c1C [Compound 1-47],100%
5,CCS(=O)(=O)c1cc(C(F)(F)F)ccc1-n1cc(-n2cc(C(F)(F)F)cn2)cn1 [Compound 1-50],100%
6,CCS(=O)(=O)c1cc(C(F)(F)F)ccc1-n1cc(-n2cc(C(F)(F)C(F)(F)F)cn2)cn1 [Compound 1-51],100%
7,CCS(=O)(=O)c1cc(C(F)(F)F)ccc1-n1ncc(-c2ccc(C(F)(F)C(F)(F)F)nc2)c1C#N [Compound 1-52],100%
8,CCS(=O)(=O)c1cc(C(F)(F)F)cnc1-n1ncc(-c2ccc(OC(F)(F)F)cc2)c1N [Compound 2-4],100%
9,CCS(=O)(=O)c1cc(C(F)(F)F)cnc1-n1ncc(-c2ccc(C(F)(F)F)nc2)c1C [Compound 2-5],100%
10,CCS(=O)(=O)c1cc(C(F)(F)F)cnc1-n1cc(-c2ccc(OC(F)(F)F)cc2)cn1 [Compound 2-6],100%
11,CCS(=O)(=O)c1cc(C(F)(F)F)cnc1-n1ncc(-c2ccc(OC(F)(F)F)cc2)c1C [Compound 2-7],100%
12,CCS(=O)(=O)c1cccnc1-n1ncc(-c2ccc(OC(F)(F)F)cc2)c1C [Compound 2-8],100%
13,CCS(=O)(=O)c1cccnc1-n1ncc(-c2ccc(C(F)(F)C(F)(F)F)cc2)c1C [Compound 2-9],100%
14,CCS(=O)(=O)c1cccnc1-n1ncc(-c2ccc(OC(F)(F)F)cc2)c1N [Compound 2-10],100%
15,CCS(=O)(=O)c1cccnc1-n1ncc(-c2ccc(C(F)(F)C(F)(F)F)cc2)c1N [Compound 2-11],100%
16,CCS(=O)(=O)c1cccnc1-n1ncc(-c2ccc(SC(F)(F)F)cc2)c1N [Compound 2-12],100%
17,CCS(=O)(=O)c1cccnc1-n1ncc(-c2ccc(C(F)(F)C(F)(F)F)nc2)c1C [Compound 2-16],100%
18,CCS(=O)(=O)c1cc(C(F)(F)F)ccc1-c1cnn(-c2ccc(C(F)(F)F)cc2)c1Br [Compound 3-3],100%
19,CCSc1cc(C(F)(F)F)ccc1-c1cn(-c2ccc(OC(F)(F)F)cc2)nn1 [Compound 5-1],100%
20,CCS(=O)(=O)c1cc(C(F)(F)F)ccc1-c1cn(-c2ccc(OC(F)(F)F)cc2)nn1 [Compound 5-2],100%

# Test system: Culex pipiens
# Experiment: Efficacy test against Culex pipiens
# Type: in vivo
# Settings: 2 ppm; first-instar larvae; after 1 day
# Experimental: as §1, §2
# Emulsion (I) was diluted with water so that the concentration of the compound of the present invention reaches 2 ppm to prepare a chemical solution for test. 20 first-instar larvae of Culex pipiens were released into 100 ml of the chemical solution for test, then the number of dead insects was calculated after 1 day was passed, and the insect mortality rate was calculated by the formula. The test was repeated twice.
row,Compound,insect mortality rate
1,CCS(=O)(=O)c1cc(C(F)(F)F)ccc1-n1cc(-c2ccc(OC(F)(F)F)cc2)cn1 [Compound 1-14],100%
2,CCS(=O)(=O)c1cc(C(F)(F)F)ccc1-n1ncc(-c2ccc(OC(F)(F)F)cc2)c1C [Compound 1-19],100%
3,CCS(=O)(=O)c1cc(C(F)(F)F)ccc1-n1ncc(-c2ccc(C(F)(F)F)nc2)c1C [Compound 1-24],100%
